The values that follow come from ChEMBL document CHEMBL5465560, “Selectivity Literature for EUbOPEN Chemogenomic Library” (2024).

Experiment [1] has as its target Vasopressin V1a receptor (Homo sapiens) (UniProt P37288). Nature of the experiment: Selectivity interaction (Panel of kinases, GPCRs, ion channels and transporters (enzymatic assay)) EUB0000266bCl AVPR1A.
The target of experiment [2] is T1, Tyrosine-protein kinase receptor TYRO3 (Homo sapiens) (UniProt Q06418).
T1 sequence (whole entry): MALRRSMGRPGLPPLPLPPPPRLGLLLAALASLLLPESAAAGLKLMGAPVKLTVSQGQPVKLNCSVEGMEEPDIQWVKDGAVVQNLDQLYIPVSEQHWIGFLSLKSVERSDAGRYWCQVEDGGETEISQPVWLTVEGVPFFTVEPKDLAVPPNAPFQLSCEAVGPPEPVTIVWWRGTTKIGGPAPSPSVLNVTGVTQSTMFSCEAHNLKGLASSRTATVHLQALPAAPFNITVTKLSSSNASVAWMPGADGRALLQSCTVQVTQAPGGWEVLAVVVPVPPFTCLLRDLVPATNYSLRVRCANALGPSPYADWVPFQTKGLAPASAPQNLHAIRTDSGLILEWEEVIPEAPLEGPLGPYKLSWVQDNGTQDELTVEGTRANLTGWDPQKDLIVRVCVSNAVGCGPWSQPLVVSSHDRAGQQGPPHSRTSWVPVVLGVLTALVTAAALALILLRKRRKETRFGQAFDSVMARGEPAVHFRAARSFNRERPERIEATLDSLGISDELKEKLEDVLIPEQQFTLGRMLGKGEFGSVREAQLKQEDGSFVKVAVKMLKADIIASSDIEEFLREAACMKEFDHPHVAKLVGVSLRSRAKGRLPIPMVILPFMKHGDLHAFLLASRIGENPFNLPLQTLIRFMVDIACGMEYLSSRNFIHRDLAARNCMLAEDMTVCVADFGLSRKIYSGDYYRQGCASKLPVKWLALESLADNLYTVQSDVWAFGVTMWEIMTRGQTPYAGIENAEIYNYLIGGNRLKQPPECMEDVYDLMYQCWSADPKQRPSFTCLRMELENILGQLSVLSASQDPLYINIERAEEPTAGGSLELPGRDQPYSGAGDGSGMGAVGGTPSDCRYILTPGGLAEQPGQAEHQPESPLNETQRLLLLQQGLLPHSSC
Nature of the experiment: Selectivity interaction (Upstate Kinase Profiler service (Millipore)) EUB0000056c TYRO3. The settings on record: at 1 µM.

The target in experiment [3] is Homeodomain-interacting protein kinase 2 (Homo sapiens, UniProt Q9H2X6). Nature of the experiment: Selectivity interaction (ProQinase) EUB0000171b HIPK2.
Sequence of Homeodomain-interacting protein kinase 2 (Q9H2X6 whole entry, looked up): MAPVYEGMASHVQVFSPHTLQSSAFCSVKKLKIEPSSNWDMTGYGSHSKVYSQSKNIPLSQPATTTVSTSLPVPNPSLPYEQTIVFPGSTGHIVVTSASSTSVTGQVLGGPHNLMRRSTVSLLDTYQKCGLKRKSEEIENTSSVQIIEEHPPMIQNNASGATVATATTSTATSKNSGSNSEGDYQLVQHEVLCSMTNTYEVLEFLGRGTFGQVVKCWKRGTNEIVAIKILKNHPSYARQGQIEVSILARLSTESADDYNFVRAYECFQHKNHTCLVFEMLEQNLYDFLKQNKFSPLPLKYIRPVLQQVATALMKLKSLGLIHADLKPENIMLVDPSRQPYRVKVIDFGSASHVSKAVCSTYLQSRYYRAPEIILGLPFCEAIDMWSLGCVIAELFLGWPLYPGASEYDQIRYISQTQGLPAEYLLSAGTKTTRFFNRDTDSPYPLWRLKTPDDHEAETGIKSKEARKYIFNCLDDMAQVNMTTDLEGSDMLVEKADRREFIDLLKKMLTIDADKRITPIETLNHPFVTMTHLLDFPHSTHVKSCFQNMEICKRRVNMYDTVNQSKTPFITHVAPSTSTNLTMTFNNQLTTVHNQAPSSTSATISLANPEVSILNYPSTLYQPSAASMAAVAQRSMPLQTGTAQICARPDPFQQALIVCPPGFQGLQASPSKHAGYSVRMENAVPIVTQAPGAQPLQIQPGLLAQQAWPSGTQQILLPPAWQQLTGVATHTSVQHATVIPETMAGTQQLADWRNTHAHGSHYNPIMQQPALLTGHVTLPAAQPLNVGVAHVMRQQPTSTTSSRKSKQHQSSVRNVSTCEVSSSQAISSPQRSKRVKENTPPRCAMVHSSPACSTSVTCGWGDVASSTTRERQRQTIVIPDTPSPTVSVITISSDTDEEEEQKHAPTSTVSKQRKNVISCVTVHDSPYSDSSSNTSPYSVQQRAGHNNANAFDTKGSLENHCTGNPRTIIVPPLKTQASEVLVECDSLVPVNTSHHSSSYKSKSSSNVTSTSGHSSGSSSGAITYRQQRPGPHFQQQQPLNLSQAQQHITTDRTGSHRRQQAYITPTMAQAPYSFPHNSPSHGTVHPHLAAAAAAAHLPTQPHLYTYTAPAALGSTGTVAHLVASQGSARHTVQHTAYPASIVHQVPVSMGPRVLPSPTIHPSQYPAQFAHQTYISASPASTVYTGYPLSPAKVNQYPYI
The subject of experiment [4] is Epidermal growth factor receptor (Homo sapiens), P00533 [UNDEFINED MUTATION]. Nature of the experiment: Selectivity interaction (ProQinase) EUB0000171b EGFR. The conditions noted are these: at 5 µM.
In experiment [5] the target is Insulin-like growth factor 1 receptor (Homo sapiens, UniProt P08069). Nature of the experiment: Selectivity interaction (ProQinase) EUB0000171b IGF1R.
Sequence of Insulin-like growth factor 1 receptor (P08069 31-736 limits assumed): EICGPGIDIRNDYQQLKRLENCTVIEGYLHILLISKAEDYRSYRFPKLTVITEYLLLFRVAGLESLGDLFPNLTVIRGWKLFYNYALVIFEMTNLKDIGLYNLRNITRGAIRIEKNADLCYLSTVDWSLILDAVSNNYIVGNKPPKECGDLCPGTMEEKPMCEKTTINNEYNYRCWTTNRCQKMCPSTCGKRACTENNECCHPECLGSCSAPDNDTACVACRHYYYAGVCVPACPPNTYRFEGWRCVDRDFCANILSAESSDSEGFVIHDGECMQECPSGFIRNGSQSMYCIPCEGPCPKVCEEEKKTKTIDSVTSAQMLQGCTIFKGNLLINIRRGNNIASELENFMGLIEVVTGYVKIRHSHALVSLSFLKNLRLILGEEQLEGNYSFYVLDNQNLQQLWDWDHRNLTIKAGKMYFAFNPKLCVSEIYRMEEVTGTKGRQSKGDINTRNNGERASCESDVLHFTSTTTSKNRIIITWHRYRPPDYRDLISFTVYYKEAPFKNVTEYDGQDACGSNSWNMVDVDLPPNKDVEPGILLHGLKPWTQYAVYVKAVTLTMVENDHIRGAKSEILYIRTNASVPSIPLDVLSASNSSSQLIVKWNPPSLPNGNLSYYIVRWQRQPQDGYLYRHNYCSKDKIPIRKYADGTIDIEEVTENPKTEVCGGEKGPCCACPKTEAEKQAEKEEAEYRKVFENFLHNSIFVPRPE
Sequence of Insulin-like growth factor 1 receptor (P08069 741-1367 limits assumed): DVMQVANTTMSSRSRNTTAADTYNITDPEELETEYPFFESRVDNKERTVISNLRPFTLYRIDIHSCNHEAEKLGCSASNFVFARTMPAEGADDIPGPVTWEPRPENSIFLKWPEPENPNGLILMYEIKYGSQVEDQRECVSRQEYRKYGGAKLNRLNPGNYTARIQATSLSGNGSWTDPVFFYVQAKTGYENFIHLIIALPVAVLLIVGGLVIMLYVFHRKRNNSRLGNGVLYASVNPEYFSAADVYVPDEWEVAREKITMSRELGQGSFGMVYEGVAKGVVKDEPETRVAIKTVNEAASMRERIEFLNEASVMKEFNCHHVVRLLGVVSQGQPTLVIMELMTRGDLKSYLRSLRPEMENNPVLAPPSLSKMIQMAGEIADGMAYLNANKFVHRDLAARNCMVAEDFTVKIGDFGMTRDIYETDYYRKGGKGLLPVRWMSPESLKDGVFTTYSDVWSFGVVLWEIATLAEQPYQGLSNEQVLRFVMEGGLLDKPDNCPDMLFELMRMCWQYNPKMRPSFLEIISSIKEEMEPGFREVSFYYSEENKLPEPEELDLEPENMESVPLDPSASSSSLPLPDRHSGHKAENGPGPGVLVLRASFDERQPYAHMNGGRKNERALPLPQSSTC
Experiment [6] has as its target T2, Serine/threonine-protein kinase DCLK2 (Homo sapiens) (UniProt Q8N568).
T2 sequence (whole entry): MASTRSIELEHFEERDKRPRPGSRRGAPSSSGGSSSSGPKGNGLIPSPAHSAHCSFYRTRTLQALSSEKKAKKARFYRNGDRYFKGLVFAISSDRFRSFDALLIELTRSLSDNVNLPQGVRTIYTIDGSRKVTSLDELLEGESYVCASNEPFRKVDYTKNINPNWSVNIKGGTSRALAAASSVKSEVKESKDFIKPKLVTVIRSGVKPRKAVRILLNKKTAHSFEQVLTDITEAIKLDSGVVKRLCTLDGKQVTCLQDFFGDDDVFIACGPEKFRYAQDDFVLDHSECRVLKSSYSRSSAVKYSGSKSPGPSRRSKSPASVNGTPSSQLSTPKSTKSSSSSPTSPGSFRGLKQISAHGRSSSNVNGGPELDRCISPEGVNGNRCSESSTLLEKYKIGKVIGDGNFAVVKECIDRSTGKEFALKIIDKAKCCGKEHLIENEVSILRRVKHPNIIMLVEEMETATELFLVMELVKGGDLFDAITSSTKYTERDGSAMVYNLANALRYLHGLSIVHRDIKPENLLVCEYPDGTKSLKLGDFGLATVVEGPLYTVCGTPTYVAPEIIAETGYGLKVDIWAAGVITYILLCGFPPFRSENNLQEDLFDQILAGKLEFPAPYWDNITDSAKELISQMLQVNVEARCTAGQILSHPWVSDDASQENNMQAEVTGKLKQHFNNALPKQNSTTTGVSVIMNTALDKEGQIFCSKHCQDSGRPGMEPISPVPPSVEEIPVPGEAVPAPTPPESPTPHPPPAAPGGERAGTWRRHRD
The experiment can be described thus: Selectivity interaction (KinomeScan (DiscoverX)) EUB0000655a DCLK2. The conditions noted are these: at 10 µM.

Experiment [7] deals with G protein-coupled receptor kinase 4 (Homo sapiens) (UniProt P32298). Nature of the experiment: Selectivity interaction (KinomeScan (DiscoverX)) EUB0000045b GRK4.
Sequence of G protein-coupled receptor kinase 4 (Homo sapiens) (P32298 whole entry, looked up): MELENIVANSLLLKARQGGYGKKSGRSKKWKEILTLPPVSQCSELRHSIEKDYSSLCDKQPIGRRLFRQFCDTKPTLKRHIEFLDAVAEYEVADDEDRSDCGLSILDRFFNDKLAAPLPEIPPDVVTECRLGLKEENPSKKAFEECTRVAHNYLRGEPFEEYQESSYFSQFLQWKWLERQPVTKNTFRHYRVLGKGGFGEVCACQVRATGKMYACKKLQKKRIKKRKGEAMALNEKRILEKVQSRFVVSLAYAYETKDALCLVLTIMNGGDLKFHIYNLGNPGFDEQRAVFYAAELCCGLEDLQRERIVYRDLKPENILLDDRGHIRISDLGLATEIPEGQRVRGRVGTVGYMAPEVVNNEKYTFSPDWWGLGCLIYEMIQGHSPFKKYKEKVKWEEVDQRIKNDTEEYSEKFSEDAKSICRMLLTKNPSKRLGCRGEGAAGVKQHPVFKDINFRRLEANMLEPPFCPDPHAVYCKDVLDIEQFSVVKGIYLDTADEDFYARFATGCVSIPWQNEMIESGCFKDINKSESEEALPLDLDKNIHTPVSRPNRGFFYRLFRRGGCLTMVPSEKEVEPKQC
For experiment [8], the target named is Tyrosine-protein kinase FRK (Homo sapiens) (UniProt P42685). The experiment can be described thus: Selectivity interaction (KinomeScan (DiscoverX)) EUB0000607a FRK. The conditions noted are these: at 10 µM.
Sequence of Tyrosine-protein kinase FRK (Homo sapiens) (P42685 whole entry): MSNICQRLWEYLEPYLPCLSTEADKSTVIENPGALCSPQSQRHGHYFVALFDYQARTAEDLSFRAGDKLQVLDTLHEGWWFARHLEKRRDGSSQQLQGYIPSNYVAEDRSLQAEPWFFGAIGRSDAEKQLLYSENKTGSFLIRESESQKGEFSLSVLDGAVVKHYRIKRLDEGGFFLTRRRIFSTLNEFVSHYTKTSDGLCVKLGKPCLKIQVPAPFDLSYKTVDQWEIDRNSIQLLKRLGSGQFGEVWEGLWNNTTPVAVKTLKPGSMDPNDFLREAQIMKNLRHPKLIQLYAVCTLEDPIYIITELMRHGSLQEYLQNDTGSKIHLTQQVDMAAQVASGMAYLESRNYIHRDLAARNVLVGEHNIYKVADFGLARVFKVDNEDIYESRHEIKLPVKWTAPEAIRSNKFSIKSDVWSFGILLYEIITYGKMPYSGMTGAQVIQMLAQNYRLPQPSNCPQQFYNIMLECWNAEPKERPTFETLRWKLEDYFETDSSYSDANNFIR
The target in experiment [9] is 5'-AMP-activated protein kinase catalytic subunit alpha-1 (Homo sapiens, UniProt Q13131). Nature of the experiment: Selectivity interaction (ActivX KiNativ screen (kinase selectivity in THP-1 cell lysates)) EUB0000639a PRKAA1. Type of experiment: subcellular. The settings on record: lysate, at 1 µM.
Sequence of 5'-AMP-activated protein kinase catalytic subunit alpha-1 (Q13131 whole entry, looked up): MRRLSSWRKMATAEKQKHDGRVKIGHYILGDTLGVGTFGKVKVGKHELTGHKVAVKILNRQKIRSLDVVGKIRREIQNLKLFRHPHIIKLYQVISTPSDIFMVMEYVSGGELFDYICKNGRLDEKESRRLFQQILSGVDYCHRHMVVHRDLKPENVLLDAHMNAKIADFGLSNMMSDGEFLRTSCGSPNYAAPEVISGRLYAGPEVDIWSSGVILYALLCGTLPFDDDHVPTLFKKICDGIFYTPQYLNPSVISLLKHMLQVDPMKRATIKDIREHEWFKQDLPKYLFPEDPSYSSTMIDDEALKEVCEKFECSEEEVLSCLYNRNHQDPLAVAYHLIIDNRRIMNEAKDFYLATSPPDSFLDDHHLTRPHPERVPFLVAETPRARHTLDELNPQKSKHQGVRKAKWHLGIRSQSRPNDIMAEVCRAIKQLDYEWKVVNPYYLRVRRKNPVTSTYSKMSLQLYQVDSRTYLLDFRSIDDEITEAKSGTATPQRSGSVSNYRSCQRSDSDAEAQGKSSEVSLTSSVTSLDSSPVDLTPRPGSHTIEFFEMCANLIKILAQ
In experiment [10] the target is STE20-like serine/threonine-protein kinase (Homo sapiens, UniProt Q9H2G2). The experiment can be described thus: Selectivity interaction (Kinase panel (Invitrogen)) EUB0000639a SLK. The settings on record: at 200 nM.
The target of experiment [11] is Serine/threonine-protein kinase SMG1 (Homo sapiens) (UniProt Q96Q15). Nature of the experiment: Selectivity interaction (Kinase panel (KiNativ target engagement assay in Jurkat cells)) EUB0001635a SMG1. Format: cell-based. The conditions noted are these: Selectivity number of off-targets 0.0, Selectivity number of targets 233.0, Source Knowledge https://www.sciencedirect.com/science/article/pii/S2451945619300674?via%3Dihub, at 1 µM.

Sequence of Vasopressin V1a receptor (Homo sapiens) (P37288 whole entry, looked up): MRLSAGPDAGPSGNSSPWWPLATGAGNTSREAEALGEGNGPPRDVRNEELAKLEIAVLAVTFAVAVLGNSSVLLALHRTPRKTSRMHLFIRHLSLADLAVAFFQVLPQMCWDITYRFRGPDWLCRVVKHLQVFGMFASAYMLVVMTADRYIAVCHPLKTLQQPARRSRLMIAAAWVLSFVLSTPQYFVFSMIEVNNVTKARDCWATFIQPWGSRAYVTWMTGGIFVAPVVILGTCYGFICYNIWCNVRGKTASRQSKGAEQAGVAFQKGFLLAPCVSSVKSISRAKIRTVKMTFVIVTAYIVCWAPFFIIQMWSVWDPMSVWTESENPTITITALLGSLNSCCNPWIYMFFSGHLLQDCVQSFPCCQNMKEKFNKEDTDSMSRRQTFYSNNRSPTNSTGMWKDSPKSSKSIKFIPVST

In turn, `CCn1c(-c2nc3cc(C(=O)N4CCCC(N)C4)ccc3n2C)cc2ccccc21` (centres undefined) yielded a pXC50 in experiment [1] below 4.3 M.

Turning to `Cc1ccc(-c2ccc3c(ccc4sc5c(c43)NC[C@@H](C)NC5=O)n2)cn1`, in [2], the % of inhibition amounted to 10%.

As for `C=CC(=O)Nc1cccc(C(=O)Nc2ccc(Nc3cc(-c4[nH]c(SC)nc4C)ccn3)cc2)c1`, the % of control stood at 100% in experiment [3] (at 1 µM); 87% in experiment [3] (at 5 µM); 86% in experiment [4]; 92% in [5] (at 1 µM); 86% in [5] (at 5 µM).

As to `CN(C)CCOc1ccc(-c2nc(-c3ccncc3)c(-c3ccc4c(c3)CC/C4=N\O)[nH]2)cc1`, the % of control in [6] was determined as 100%.

On to `C=CC(=O)Nc1cc(-n2c(=O)ccc3cnc4ccc(-c5ccc(NS(C)(=O)=O)cc5)cc4c32)ccc1C`, for which the % of control in [7] (at 1 µM) turned out to be 100%; in [7] (at 10 µM), 66%.

In experiment [8], `CNC(=O)Nc1ccc(-c2nc(N3CC4CCC(C3)O4)c3cnn(C4CCC5(CC4)OCCO5)c3n2)cc1` yielded a % of control of 68%.

With `CC[C@@H]1[C@H](F)C(=O)N[C@@H]1COc1nccc2cc(C(N)=O)c(OC)cc12` [ZIMLOVISERTIB], the % of inhibition is 5.9% in [9] and -0.0851% in [10].

For the compound `C=CC(=O)Nc1ccc(C(=O)Nc2[nH]nc3c2CN(C(=O)N[C@H](CN(C)C)c2ccccc2)C3(C)C)cc1`, the % of engagement in experiment [11] was -6.6%.
